Results on 19 molecules are retold here after ChEMBL document CHEMBL1136993, “Efficient chemoenzymatic synthesis, cytotoxic evaluation, and SAR of epoxysterols” (J Med Chem, 2009).

Assay [1] relates to HT-29. Kind of assay: Cytotoxicity against human HT-29 cells after 48 hrs by Alamar Blue assay. Type of assay: functional, cell-based. To be noted: HT-29, 48 h. (The colour change of resazurin is a common sign of viable cells or microbes.)
For assay [2], the system named is BJ. Kind of assay: Cytotoxicity against human BJ cells after 48 hrs by Alamar Blue assay. Type of assay: cell-based.
In assay [3] the test system is LAMA-84. Kind of assay: Cytotoxicity against human LAMA-84 cells after 48 hrs by Alamar Blue assay. To be noted: LAMA-84, 48 h. Type of assay: functional, cell-based.

Turning to `CC(C)CCC[C@@H](C)[C@H]1CC[C@H]2[C@@H]3CC[C@@]45O[C@@H]4[C@@H](O)CC[C@]5(C)[C@H]3CC[C@]12C`, the IC50 (in general, the point on the concentration scale where inhibition reaches its midpoint) in assay [1] came out at 61.9 µM.

With `CC(C)CCC[C@@H](C)[C@H]1CC[C@H]2[C@@H]3CC[C@]45O[C@H]4[C@@H](O)CC[C@]5(C)[C@H]3CC[C@]12C`, the IC50 in assay [2] was 31.4 µM; in assay [1] it was 22.6 µM; in assay [3], 11.2 µM.

On to `CC(C)CCC[C@@H](C)[C@H]1CC[C@H]2[C@@H]3[C@@H]4O[C@@]45C[C@@H](O)CC[C@]5(C)[C@H]3CC[C@]12C`, for which the IC50 in assay [1] worked out at 40.9 µM. This counts as double-digit micromolar.

`CC(C)CCC[C@@H](C)[C@H]1CC[C@H]2[C@@H]3C[C@@H]4O[C@@]45[C@@H](O)[C@@H](O)CC[C@]5(C)[C@H]3CC[C@]12C` showed an IC50 in assay [1] of 38.2 µM.

In the case of `CC(C)CCC[C@@H](C)[C@H]1CC[C@H]2[C@@H]3C[C@H]4O[C@]45[C@@H](O)[C@@H](O)CC[C@]5(C)[C@H]3CC[C@]12C`, the results for the half-maximal inhibitory concentration (IC50) in assay [2], in assay [1] and in assay [3] were 20.4 µM, 17.7 µM and 8 µM, respectively.

Molecule `CC(C)CCC[C@@H](C)[C@H]1CC[C@H]2[C@@H]3[C@H](O)C=C4C[C@@H](O)CC[C@]4(C)[C@H]3CC[C@]12C` yielded an IC50 in assay [1] of 15.5 µM. That is a double-digit micromolar value.

As to `CC(C)CCC[C@@H](C)[C@H]1CC[C@H]2[C@@H]3[C@H](O)[C@@H]4O[C@@]45C[C@@H](O)CC[C@]5(C)[C@H]3CC[C@]12C`, the IC50 in assay [1] was 33.8 µM.

For the molecule `CC(C)CCC[C@@H](C)[C@H]1CC[C@H]2[C@@H]3CC=C4[C@@H](O)[C@@H](O)CC[C@]4(C)[C@H]3CC[C@]12C`, the IC50 in assay [1] is over 50 µM.

As to `CC(C)CCC[C@@H](C)[C@H]1CC[C@H]2[C@@H]3C[C@@H]4O[C@@]45C[C@@H](O)CC[C@]5(C)[C@H]3CC[C@]12C`, the IC50 in assay [1] was over 50 µM.

In the case of `CC(C)CCC[C@@H](C)[C@H]1CC[C@H]2[C@@H]3C[C@H]4O[C@]45C[C@@H](O)CC[C@]5(C)[C@H]3CC[C@]12C`, in assay [1], the IC50 amounted to 37.6 µM.

Consider `CC(C)CCC[C@@H](C)[C@H]1CC[C@H]2[C@@H]3[C@@H](O)[C@H]4O[C@]45C[C@@H](O)CC[C@]5(C)[C@H]3CC[C@]12C`, for which the results for the IC50 in assay [2], in assay [1] and in assay [3] were 19.5 µM, 8.3 µM and 7 µM, respectively.

`CC(C)CCC[C@@H](C)[C@H]1CC[C@H]2[C@@H]3[C@@H](O)C=C4C[C@@H](O)CC[C@]4(C)[C@H]3CC[C@]12C`: the IC50 stood at 20.1 µM in assay [2], 6.4 µM in assay [1] and 4.8 µM in assay [3].

As for `CC(C)CCC[C@@H](C)[C@H]1CC[C@H]2[C@@H]3[C@@H](O)[C@@H]4O[C@@]45C[C@@H](O)CC[C@]5(C)[C@H]3CC[C@]12C`, the 50% inhibitory concentration (IC50) in assay [2] came out at 13.4 µM; in assay [1] it was 13.3 µM; in assay [3] it was 4.1 µM.

In assay [1], `CC(C)CCC[C@@H](C)[C@H]1CC[C@H]2[C@@H]3CCC4=C[C@@H](O)CC[C@]4(C)[C@H]3CC[C@]12C` showed an IC50 of over 50 µM.

`CC(=O)O[C@H]1CC[C@]2(C)[C@H]3CC[C@]4(C)[C@@H]([C@H](C)CCCC(C)C)CC[C@H]4[C@@H]3C[C@H]3O[C@]32[C@H]1O`: the IC50 in assay [1] came to 28.2 µM.

`CC(=O)O[C@H]1[C@@H](O)CC[C@]2(C)[C@H]3CC[C@]4(C)[C@@H]([C@H](C)CCCC(C)C)CC[C@H]4[C@@H]3C[C@H]3O[C@@]312`: the IC50 in assay [1] was found to be 15.9 µM; in assay [3], 8.1 µM.

Molecule `CC(=O)O[C@H]1CC[C@@]2(C)C(=C[C@H](O)[C@H]3[C@@H]4CC[C@H]([C@H](C)CCCC(C)C)[C@@]4(C)CC[C@@H]32)C1` displayed a half-inhibitory concentration (IC50) in assay [1] of 29.4 µM.

`CC(C)CCC[C@@H](C)[C@H]1CC[C@H]2[C@@H]3CC=C4C[C@@H](O)CC[C@]4(C)[C@H]3CC[C@]12C` [CHOLESTEROL] yielded an IC50 in assay [1] of over 50 µM.

`COc1cccc2c1C(=O)c1c(O)c3c(c(O)c1C2=O)C[C@@](O)(C(=O)CO)C[C@@H]3O[C@H]1C[C@H](N)[C@H](O)[C@H](C)O1` [DOXORUBICIN]: the results for the IC50 in assay [2], in assay [1] and in assay [3] were 2.7 µM, 1.15 µM and 0.76 µM, respectively.
